Converted amounts (≈) assume the structure as drawn.
Key:
[1] = target: T1, Human C5 (Homo sapiens, UniProt P01031); assay: Red blood cell (RBC) hemolysis assay, luminescent (Example 13, Table 22); type: cell-based; conditions: sheep EA cells, […] C5-depleted human serum, 0.5 nM human C5, 1 hour 37° C., luminescence
T1 construct: purchased Complement Technology
Description: Compound CU0136 is a racemic mixture of Compound CU0186 and CU0187. Numbers in parenthesis following compound numbers indicate alternate enantiomers (as distinguished by retention time during chromatographical separation).

[2] = test system: P-glycoprotein (P-gp, MDR1); assay: Permeability assay, bidirectional transport, efflux ratio (Example 30, Table 34); type: in vitro ADME, canine; conditions: dog, MDCK-MDR1, pH 7.4; read-out: MDCK-MDR efflux ratio
Protocol: (§1) Permeability assays were carried out to provide a preliminary indication of suitability for oral dosing and compound permeability across the blood brain barrier. Unidirectional and bidirectional compound transport across Madin Darby canine kidney (MDCK) cell monolayers was assessed. For unidirectional transport assessment, transport across MDCK wild type (MDCK-WT) cell monolayers was assessed. For bidirectional transport, transport across MDCK-MDR1 cell monolayers was assessed. MDCK-MDR1 cells express the MDR1 gene encoding the P-glycoprotein (P-gp) efflux protein.
(§2) MDCK-WT and MDCK-MDR1 cells were plated onto permeable polycarbonate supports in 12-well Costar transwell plates and allowed to grow and differentiate for 3 days. After 3 days in culture, the culture medium (DMEM supplemented with 10% FBS) was removed from both sides of the transwell inserts and cells were rinsed with warm HBSS. After the rinse step, the chambers were filled with warm transport buffer (HBSS containing 10 mM HEPES, 0.25% BSA, pH 7.4) and the plates were pre-incubated at 37° C. for 30 minutes prior to TEER (Trans Epithelial Electric Resistance) measurements.
(§3) The buffer in the donor chamber (apical side for A-to-B assay, basolateral side for B-to-A assay) was removed and replaced with the working solution (3 μM test compound and 10 μM for control compounds in transport buffer). The plates were then placed at 37° C. under light agitation. At designated time points (30, 60 and 90 min), an aliquot of transport buffer from the receiver chamber was removed and replenished with fresh transport buffer. Samples were quenched with ice-cold ACN containing internal standard and then centrifuged to pellet protein. Resulting supernatants were further diluted with 50/50 ACN/H2O (Atenolol diluted in just water) and submitted for LC-MS/MS analysis. Apparent permeability (Pap) values were calculated from duplicate determinations. Atenolol and propranolol were tested as low and […] permeability references.
Efflux ratios were calculated for bidirectional transport across MDCK-MDR1 cell monolayers as an indication of compound efflux by P-gp. The efflux ratio is calculated using the ratio of mean Papp values for B to A transport to mean Papp values for A to B transport [Papp(BA)/Papp(AB)].

[3] = Kinetic solubility in PBS pH 7.4, HPLC-UV (Example 21, Table 27); type: physicochemical; conditions: phosphate buffered saline, aqueous buffer, kinetic from dmso stock, 0.5 M PBS, shaken minimum 24 h at approximately 25° C., HPLC-UV 270 nm
Outline: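 Supernatant measured by HPLC-UV (270 nm) against a DMSO calibration curve of 15.6–500.0 μM after filtration. Triplicate samples were made from 10 mM DMSO stock in 0.05 M phosphate buffer pH 7.4 (5% DMSO) and shaken at least 24 h at about 25 °C.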

[4] = Permeability assay, unidirectional transport, Papp (Example 30, Table 34); type: in vitro ADME, canine; conditions: dog, pH 7.4; MDCK-WT cell monolayers, A-to-B, 3 μM test compound, 37° C., duplicate determinations
Protocol: as §1, §2, §3
Papp values indicate extent of compound permeation across monolayers.

[5] = target: T2, human C5 complement protein (Homo sapiens, UniProt P01031); assay: Surface plasmon resonance (SPR), immobilized human C5, 37° C. (Example 18, Table 24); type: binding; conditions: lowest value obtained where a range of concentrations was analyzed
T2 sequence (P01031 19-1676): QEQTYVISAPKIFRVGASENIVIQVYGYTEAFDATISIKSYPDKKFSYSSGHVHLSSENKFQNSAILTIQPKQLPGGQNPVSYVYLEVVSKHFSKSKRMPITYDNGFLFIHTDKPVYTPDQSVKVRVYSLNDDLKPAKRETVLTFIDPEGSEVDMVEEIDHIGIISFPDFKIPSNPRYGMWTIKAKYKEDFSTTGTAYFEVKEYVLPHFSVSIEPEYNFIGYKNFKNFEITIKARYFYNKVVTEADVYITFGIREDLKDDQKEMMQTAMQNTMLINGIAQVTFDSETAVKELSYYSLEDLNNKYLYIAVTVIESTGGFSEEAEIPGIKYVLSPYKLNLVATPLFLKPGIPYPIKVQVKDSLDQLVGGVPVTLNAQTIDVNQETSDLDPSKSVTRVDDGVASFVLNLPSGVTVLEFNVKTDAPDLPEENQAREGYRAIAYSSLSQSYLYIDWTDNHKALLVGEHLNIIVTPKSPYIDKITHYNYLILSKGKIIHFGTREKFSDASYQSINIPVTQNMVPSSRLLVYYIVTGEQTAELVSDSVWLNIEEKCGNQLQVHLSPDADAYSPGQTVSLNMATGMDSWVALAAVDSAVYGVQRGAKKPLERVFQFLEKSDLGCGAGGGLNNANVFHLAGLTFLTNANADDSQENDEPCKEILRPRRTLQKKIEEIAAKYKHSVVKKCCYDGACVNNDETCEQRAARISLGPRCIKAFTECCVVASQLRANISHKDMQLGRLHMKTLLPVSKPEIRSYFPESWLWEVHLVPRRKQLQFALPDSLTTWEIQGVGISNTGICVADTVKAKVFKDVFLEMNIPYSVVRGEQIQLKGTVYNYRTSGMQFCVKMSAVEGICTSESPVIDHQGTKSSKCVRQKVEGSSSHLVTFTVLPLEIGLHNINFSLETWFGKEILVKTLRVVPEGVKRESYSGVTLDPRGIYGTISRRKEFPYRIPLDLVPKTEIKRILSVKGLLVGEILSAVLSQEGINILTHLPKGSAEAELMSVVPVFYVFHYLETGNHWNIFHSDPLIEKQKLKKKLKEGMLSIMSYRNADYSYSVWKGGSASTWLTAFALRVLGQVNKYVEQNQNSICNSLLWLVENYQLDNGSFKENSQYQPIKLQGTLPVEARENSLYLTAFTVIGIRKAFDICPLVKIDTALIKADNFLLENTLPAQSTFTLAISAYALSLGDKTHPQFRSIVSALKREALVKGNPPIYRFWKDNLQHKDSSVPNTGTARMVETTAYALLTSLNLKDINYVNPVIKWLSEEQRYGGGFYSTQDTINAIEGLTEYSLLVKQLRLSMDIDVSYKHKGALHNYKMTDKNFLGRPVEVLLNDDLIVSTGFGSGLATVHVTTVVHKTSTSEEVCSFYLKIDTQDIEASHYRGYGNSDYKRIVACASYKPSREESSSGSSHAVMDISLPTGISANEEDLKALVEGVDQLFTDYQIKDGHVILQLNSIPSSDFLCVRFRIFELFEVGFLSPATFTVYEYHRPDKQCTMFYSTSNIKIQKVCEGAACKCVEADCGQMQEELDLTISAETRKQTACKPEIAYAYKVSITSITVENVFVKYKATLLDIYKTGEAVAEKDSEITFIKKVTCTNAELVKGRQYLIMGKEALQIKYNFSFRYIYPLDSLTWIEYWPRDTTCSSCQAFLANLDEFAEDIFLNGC

[6] = target: T1, Human C5; assay: Red blood cell (RBC) hemolysis assay, luminescent (Example 24, Table 29); type: cell-based; conditions: sheep EA cells, […] C5-depleted human serum, 0.5 nM human C5, 1 hour at 37° C., luminescence (Table 29)
Description: (§4) Numbers in parenthesis following the compound number indicate alternate enantiomers (as distinguished by retention time during chromatographical separation).

[7] = target: T2, human C5 complement protein; assay: Surface plasmon resonance (SPR), immobilized human C5, 37° C. (Example 23, Table 28); type: binding; conditions: lowest value obtained where a range of concentrations was analyzed (Table 28)
[8] = target: T1, Human C5; assay: Red blood cell (RBC) hemolysis assay, luminescent (Example 28, Table 32); type: cell-based; conditions: sheep EA cells, 1.5% C5-depleted human serum, 0.5 nM human C5, 1 hour at 37° C., luminescence (Table 32)
[9] = target: T2, human C5 complement protein; assay: Surface plasmon resonance (SPR), immobilized human C5, 37° C. (Example 27, Table 31); type: binding; conditions: lowest value obtained where a range of concentrations was analyzed (Table 31)
[10] = target: purified human C5 (Homo sapiens, UniProt P01031); assay: Red blood cell hemolysis assay, optical, absorbance 412 nm (Example 3, Table 6); type: cell-based; conditions: antibody-sensitized sheep erythrocytes, 1.5% human C5 depleted sera, 0.5 nM human C5; average where replicates
Sequence of purified human C5 (P01031 19-1676): as above
Protocol: Experiments were carried out using a red blood cell (RBC) hemolysis assay to assess compound inhibition of RBC lysis. […] The assay was carried out using 1.5% human C5 depleted sera and 0.5 nM purified human C5.
GVB++ buffer (Complement Technology, Tyler, Tex.) was heated at 37° C. for a minimum of 20 minutes. The human C5 depleted sera and purified human C5 were rapidly thawed at 37° C. and then stored on ice or wet ice, respectively. The compound stock (10 mM, DMSO) was serially diluted in 100% DMSO to obtain ten 6-fold dilutions before addition of GVB++. Sera dilution was prepared by adding 5 mL of GVB++ to a 15 mL conical tube, removing 600 μL of the GVB++ and adding 600 μL of the 100% sera. The tube was mixed by inverting three times. A volume of 25 μL of the diluted sera was added to each well so that the final concentration of sera in the well was 1.5%. C5 dilution was prepared by adding 5 mL of GVB++ to a 15 mL conical tube, removing 4 μL of the GVB++ and adding 4 μL of the C5 stock. The tube was mixed by inverting three times. A volume of 25 μL was added to each well so that the final amount of C5 was 0.5 nM in each well. The antibody-sensitized sheep erythrocytes (EAs) were centrifuged at 1,000× gravity at 22° C. for 3 minutes. The supernatant was pipetted off without disrupting the pellet. The pellet was then resuspended in GVB++ with the same volume removed. Resuspended EAs were mixed by gently inverting the tube.
Five controls were run on each plate: (1) EAs only=100 μL EAs+50 μL GVB++ with 4% DMSO+50 μL GVB++; (2) EA+Sera=100 μL EAs+50 μL GVB++ with 4% DMSO+25 μL Sera dilution+25 μL GVB++; (3) EA+C5=100 μL EAs+50 μL GVB++ with 4% DMSO+25 μL C5 dilution+25 μL GVB++; (4) EA+Sera+C5=100 μL EAs+50 μL GVB++ with 4% DMSO+25 μL Sera dilution+25 μL C5; (5) GVB++ Only=200 μL GVB++. Other wells included: GVB++ with 4% DMSO=20 μL DMSO+480 μL GVB++. All samples were analyzed in duplicate. The compound dose response curve was generated using samples prepared with 100 μL EA+50 μL compound dilution+25 μL C5 dilution+25 μL sera dilution.
Test plates were prepared by adding 100 μL of EAs, 50 μL of compound dilution, 25 μL of sera dilution, and 25 μL of C5 dilution to individual wells of a 96-well tissue culture-treated clear microtitre plate (USA Scientific, Ocala, Fla.) and resuspending by pipetting up and down three times. The samples were incubated at 37° C. for one hour. At the completion of the incubation, the plates were centrifuged at 1,000× gravity for 3 minutes. 100 μl of supernatant were transferred to a new plate and the absorbance was read at 412 nm. Data was fit with a log-logit formula producing a dose-response curve and IC50.
“IC50” refers to the half maximal inhibitory concentration, where the value is the concentration of the inhibitor needed to reduce red blood cell hemolysis by half. Where replicate analysis was conducted, average IC50 values are provided along with standard deviation (SD) values.

[11] = test system: CD59-deficient RBCs from patients with paroxysmal nocturnal hemoglobinuria (PNH); assay: Hemolysis inhibition with PNH patient cells, flow cytometry for CD59 and plate assay (Example 6); type: cell-based, human; conditions: FIG. 2
Protocol: Flow cytometry studies were carried out to assess the ability of compounds to inhibit hemolysis of CD59-deficient RBCs from patients with paroxysmal nocturnal hemoglobinuria (PNH). […] To induce hemolysis, donor-matched serum was acidified to pH 6.4 with HCl. Compounds, serum, and RBCs, 2.5% volume per volume (v/v), were incubated for 18 hours at 37° C. After incubation, cells were washed and re-suspended in 1 ml fluorescence-associated cell sorting (FACS) buffer (0.1% BSA IgG-free in PBS, 0.1% Sodium Azide). Then, anti-CD59 antibody conjugated with phycoerythrin was added at a final concentration of 0.25 μg/ml to 100 μl of cell suspension and incubated at 4° C. for 30 minutes. Cells were then washed twice with cold FACS buffer, re-suspended in FACS buffer and analyzed with a BD Accuri C6 Flow Cytometer (BD Biosciences, San Jose, Calif.) for CD59 levels. The level of CD59-positive cells was monitored as a measure of complement-mediated hemolysis of PNH type III cells. A negative control using non-acidified serum was used to establish a baseline of CD59 expression under non-hemolytic conditions (FIG. 1A).

[12] = target: T1, Human C5; assay: Surface plasmon resonance (SPR), compounds on immobilized human C5 (Example 2, Table 5); type: binding; conditions: lowest value where a range of compound concentrations were analyzed
Protocol: Surface plasmon resonance (SPR) technology was used to evaluate affinity, specificity, and kinetics of interactions between compounds and complement protein C5 in real time without the need for labeling.
SensiQ FE SPR system (SensiQ Technologies, Oklahoma City, Okla.) was used to provide sensitive and accurate detection of binding of small molecules to the very large C5 protein (MW=195,000 Da). The chip was prepared by preconditioning the sensor according to the protocol of the SensiQ FE using 10 mM HCl, 50 mM NAOH and 0.1% SDS. The sensor chip was activated by using a mixture of fresh EDAC (1-ethyl-3-(-3-dimethylaminopropyl) carbodiimide) (Sigma Co., St. Louis, Mo.) and NHS (N-hydroxy succinimide) (Sigma Co., St. Louis, Mo.). Human C5 was surface immobilized to a Pioneer Biosensor chip via random amine coupling (>12,000 RU) which makes use of the N-terminus and ε-amino groups of lysine residues of the protein ligand. Immobilization was done by injecting 30-40 μg/ml C5 in 10 mM NaAc pH 4.5 onto designated channels at a rate of 10 μL/minute for 12 minutes, targeting RL>12000 RU for small molecules.
Compounds were diluted in DMSO in a format of 100-fold final concentration and 3-fold serial dilution (5 or 6 dilutions). The 100-fold compounds were transferred to one-fold DMSO-free assay buffer in the 96-well test plate. The compound solution was injected at a rate of 60 μL/minute for 30-60 seconds, followed by 60-90 seconds dissociation time, buffer flushing and/or priming. Blank solution (1% DMSO assay buffer) was run for every 6 injections of compounds. Double reference by subtracting both blank channel and reference channel was applied for data processing. Titration of C5 binding compounds to the C5-immobilized biosensor chip surface led to interactions between C5 and potential binders, and the resulting changes of surface refractive index were sensitively measured by the system.
SPR data were analyzed with the managing software provided by SensiQ and equilibrium dissociation constant (KD) values were determined for each compound. Where a range of compound concentrations were analyzed, the lowest value obtained is presented.

[13] = target: T1, Human C5; assay: Hemolysis assay, luminescent, classical complement pathway (Example 4, Table 7); type: cell-based; conditions: sheep EA cells, 1.5% C5-depleted human serum, 0.5 nM human C5, luminescence readout
Description: as §4

[14] = Drug-Metabolism-and-Pharmacokinetics (DMPK), single IV and oral dose in rats (Example 5); conditions: rat, in vivo; fasted male Sprague Dawley rats, 1 mg/kg IV and 10 mg/kg PO, 5% DMSO: 20% HP-Beta-CD
Protocol: Single intravenous (IV) and oral dose (P0, per oral) administration of C5 inhibitors were carried out in rats. Rats were then analyzed for Drug-Metabolism-and-Pharmacokinetic (DMPK) properties, used to determine the pharmacokinetics and oral bioavailability of the C5 inhibitors.
SM0011 was formulated as a clear solution at 1 mg/mL in 5% DMSO: 20% HP-Beta-CD. Fasted male Sprague Dawley rats were dosed with the solution at 1 MPK (mg/kg) IV and 10 MPK (mg/kg) PO. Analysis of the DMPK properties of the compound were used to determine the bioavailability.

T1 sequence (P01031 19-1676): as above

Row | Compound | efflux ratio at 3 μM [2] | solubility kinetic [3] [µM] | Papp A→B at 3 μM [4] [×10⁻⁶ cm/s] | IC50 [13] [nM] | further results
1 | COc1cc(CC(=O)N(C)C)ccc1CN1CCCN(c2ccc(OC)c(OCCCC(C)(F)F)c2)C1=O [CU0140] | 63 | 404 (≈ 216 µg/mL) | 26 | – | IC50 [1]: 15.8 nM
2 | COc1cc(CC(=O)N2CCOCC2)ccc1CN1CCCN(c2ccc(OC)c(OCCCC(C)(F)F)c2)C1=O [CU0145] | 83 | 278 (≈ 160 µg/mL) | 16.8 | – | IC50 [1]: 15 nM
3 | CCCCCOc1cc(N2CCCN(Cc3ccc(CNC(C)=O)cc3OC)C2=O)ccc1OC [CU0160] | 61 | 413 (≈ 200 µg/mL) | 21.6 | – | IC50 [1]: 23.5 nM
4 | CCCCCOc1cc(N2CCCN(Cc3ccnc4c3c(Cl)cn4CC(=O)N(C)C)C2=O)ccc1OC [CU0261] | 17 | 31 (≈ 16.8 µg/mL) | 26.1 | – | IC50 [1]: 11 nM
5 | COc1cc(CNC(C)=O)ccc1CN1CCCN(c2ccc(OC)c(OCCCC3CC3)c2)C1=O [CU0501] | 60 | 195 (≈ 96.6 µg/mL) | 24.2 | – | –
6 | CCCCCOc1cc(N2CCCN(Cc3ccnc4c3c(Cl)cn4CC(=O)N3CC4CC(C3)O4)C2=O)ccc1OC [CU0506] | 59 | – | 21.1 | – | –
7 | CCCCCOc1cc(N2CCCN(Cc3ccnc4c3c(Cl)cn4CC(=O)N3C[C@H]4C[C@@H]3CO4)C2=O)ccc1OC [CU0510] | 71 | – | 22.7 | – | –
8 | CCCCCOc1cc(N2CCCN(Cc3ccnc4c3c(Cl)cn4CC(=O)N(C)CC#N)C2=O)ccc1OC [CU0529] | 75 | 50 (≈ 28.4 µg/mL) | 17.1 | – | Kd [5]: 0.322 nM
9 | COc1cc(CC(=O)N(C)C)ccc1CN1CCCN(c2ccc(OC)c(OCCCC3CC3)c2)C1=O [CU0555] | 15 | – | 23 | – | Kd [5]: 1.06 nM
10 | CCCCCOc1cc(N2CCCN(Cc3ccnc4c3c(Cl)cn4CC(=O)N(C)C)C2=O)ncc1OC [CU0558] | 9 | 271 (≈ 147 µg/mL) | 25.2 | – | Kd [5]: 0.152 nM
11 | CCCCCOc1cc(N2CCCN(Cc3ccnc4c3c(Cl)cn4CC(=O)N3CCC3)C2=O)ccc1OC [CU0560] | 23 | 31 (≈ 17.2 µg/mL) | 23 | – | Kd [5]: 0.054 nM
12 | CCCCCOc1cc(N2CCCN(Cc3ccc(CNC(C)=O)cc3OC)C2=O)ncc1OC [CU0579] | 31 | 339 (≈ 164 µg/mL) | 23.5 | – | –
13 | CCCCCOc1cc(N2CCCN(Cc3ccnc4c3c(Cl)cn4CC(=O)N(C)C)C2=O)cnc1OC [CU0616] | 18 | – | 29 | – | –
14 | COc1ccc(N2CCCN(Cc3ccnc4c3c(Cl)cn4CC(=O)N(C)C)C2=O)cc1Br [CU0689] | 8 | – | 23.8 | – | –
15 | CCCCCOc1cc(N2CC3(CC3)CN(Cc3ccccc3OC)C2=O)ccc1OC [SC0064] | – | – | – | – | IC50 [6]: 23.7 nM; Kd [7]: 11.1 nM
16 | CCCCCOc1cc(N2CC3(COC3)CN(Cc3ccccc3OC)C2=O)ccc1OC [SC0066] | – | – | – | – | IC50 [6]: 39.7 nM; Kd [7]: 43.7 nM
17 | COc1ccc(NC(=O)NC(CO)c2ccccc2O)cc1OCCCC(C)C (stereo not drawn) [SM0001, 1-(2-hydroxy-1-(2-hydroxyphenyl)ethyl)-3-(4-methoxy-3-((4-methylpentyl)oxy)phenyl)urea] | – | – | – | – | IC50 [10]: 20.9 nM; inhibition of PNH patient hemolysis with increasing concentrations [11]: dose-dependent manner; Kd [12]: 49 nM
18 | COc1ccc(NC(=O)N[C@@H](CO)c2ccccc2OC)cc1OCCCC(C)C [SM0002] | – | – | – | 11.9 | IC50 [10]: 21.9 nM; Kd [12]: 14 nM
19 | COc1ccccc1CNC(=O)Nc1ccc(OC)c(OCCCC(C)C)c1 [SM0006] | – | – | – | 37.6 | IC50 [10]: 125 nM; Kd [12]: 18 nM
20 | COc1ccc(NC(=O)N[C@@H](CO)c2ccccc2)cc1OCCCC(C)C [SM0011] | – | – | – | 60.2 | IC50 [10]: 266 nM; Kd [12]: 157 nM; bioavailability [14]: ~30%
21 | CCCCOc1cc(NC(=O)N[C@@H](CO)c2ccccc2)ccc1OC [SM0035] | – | – | – | 328 | IC50 [10]: 1180 nM
22 | COc1ccc(NC(=O)NCc2ccccc2OC(F)F)cc1OCCCC(C)C [SM0104] | – | – | – | 558 | Kd [12]: 210 nM
23 | CCCCCOc1cc(NC(=O)N(CCC(=O)NCc2ccncc2)Cc2cc(F)ccc2OC)ccc1OC [SM0215] | – | – | – | 244 | –
24 | CCCCCOc1cc(NC(=O)N(CCC(=O)N(C)C)Cc2cc(F)ccc2OC)ccc1OC [SM0216] | – | – | – | 199 | –
25 | CCCCCOc1cc(NC(=O)N(CCOCc2cn(C)cn2)Cc2cc(F)ccc2OC)ccc1OC [SM0217] | – | – | – | 210 | –
26 | COc1ccc(NC(=O)N[C@H]2COC(C)(C)Oc3c(OC)cccc32)cc1OCCCC(C)C [SM0218] | – | – | – | 48.6 | –
27 | CCCCCOc1cc(NC(=O)NCc2ccc(Br)cc2OC)ccc1OC [SM0219] | – | – | – | 239 | –

Further lines, with some results ahead:

Row | efflux ratio at 3 μM [2] | solubility kinetic [3] [µM] | Papp A→B at 3 μM [4] [×10⁻⁶ cm/s] | Compound | IC50 [13] [nM] | further results
28 | 62 | – | 14.3 | CCCCCOc1cc(N2CC[C@H](C)N(Cc3ccnc4c3c(Cl)cn4CC(=O)N3CC[C@H](N4CCOCC4)C3)C2=O)ccc1OC [SC0100] | – | IC50 [8]: 0.9 nM
29 | 144 | – | 5.7 | COc1cc(CC(=O)N[C@@H]2CN(C)C[C@@H]2F)ccc1CN1C(=O)N(c2ccc(OC)c(OCCCC3CC3)c2)CC[C@@H]1C [SC0109] | – | IC50 [8]: 1.2 nM
30 | 18 | – | 15.3 | CCCCCOc1cc(N2CC[C@@H](C)N(Cc3cccc4c3c(Cl)cn4CC(=O)N(C)C)C2=O)ccc1OC [SC0110] | – | IC50 [8]: 1.3 nM
31 | 12 | 13 (≈ 7.22 µg/mL) | 16.4 | CCCCCOc1cc(N2CC[C@H](C)N(Cc3cccc4c3c(Cl)cn4CC(=O)N(C)C)C2=O)ccc1OC [SC0112] | – | IC50 [8]: 1.3 nM; Kd [9]: 0.28 nM
32 | 98 | 96 (≈ 56.1 µg/mL) | 6.6 | CCCCCOc1cc(N2CC[C@H](C)N(Cc3ccnc4c3c(Cl)cn4CC(=O)N3CC(O)C3)C2=O)ccc1OC [SC0120] | – | IC50 [8]: 1.5 nM; Kd [9]: 0.01 nM

From US20230115176A1 (Ra Pharmaceuticals, Inc., priority 2019, published 2023)
